For assay [1], the target named is T1, DYRK1B (Homo sapiens, UniProt Q9Y463).
T1 construct: purchased Eurofins; host or cells: E. coli BL21-derived (T7 phage display) or HEK-293
Kind of assay: KdELECT kinase binding assay (Eurofins), DYRK1B. The settings on record: 11-point 3-fold dilution series, qPCR readout; read-out: Binding Affinity (Kd) DYRK1B. How it is done:
(§1) KDs were obtained from Eurofins who used the following procedure: Kinase tagged T7 phase strains were prepared in an E. coli host derived from the BL21 strain. E. coli were grown to log-phase and infected with T7 phage and incubated with shaking at 32° C. until lysis. The lysates were centrifuged and filtered to remove cell debris. The remaining kinases were produced in HEK-293 cells and subsequently tagged with DNA for qPCR detection. Streptavidin-coated magnetic beads were treated with biotinylated small molecule ligands for 30 minutes at room temperature to generate affinity resins for kinase assays. The liganded beads were blocked with excess biotin and washed with locking buffer (SeaBlock (Pierce), 1% BSA, 0.05% Tween 20, 1 mM DTT) to remove unbound ligand and to reduce non-specific binding. Binding reactions were assembled by combining kinases, liganded affinity beads, and test compounds in 1× binding buffer (20% SeaBlock, 0.17× PBS, 0.05% Tween 20, 6 mM DTT). Test compounds were prepared as 111X stocks in 100% DMSO. Kds were determined using a 11-poin 3-fold compound dilution series with three DMSO control points. All compounds for Kd measurements are distributed by acoustic transfer (non-contact dispensing) in 100% DMSO. The compounds were then diluted directly into the assays such that the final concentration of DMSO was 0.9%. All reactions performed in polypropylene 384-well plate. Each was a final volume of 0.02 mL. The assay plates were incubated at room temperature with shaking for 1 hour and the affinity beads were washed with wash buffer (1×PBS, 0.05% Tween 20). The beads were then resuspended in elution buffer (1X PBS, 0.05% Tween 20, 0.5 µM nonbiotinylated affinity ligand) and incubated at room temperature with shaking for 30 minutes. The kinase concentration in the eluates was measured by qPCR.
For orientation: Quantitative PCR measures a nucleic acid by following its amplification.

Assay [2] concerns the target T2, DYRK1A (Homo sapiens, UniProt Q13627).
T2 construct: purchased Eurofins; host or cells: E. coli BL21-derived (T7 phage display) or HEK-293
As to the kind of experiment: HiBiT split luciferase assay of targeted degradation of DYRK1A in Flp-In T-REx 293 cells. It is filed as cell-based. The conditions noted are these: 300 nM compound, 24 h, HiBiT-tagged DYRK1A in Flp-In T-REx 293 cells, normalized to vehicle; read-out: Relative Degradation at 300 nM DYRK1A. An excerpt: (§2) The Flp-In T-REx 293 Cell Line and the pcDNA5/FRT/TO vector (Invitrogen) were used to generate stable cell clones for tetracyclin-inducible expression of DYRK1A and DYRK1B. These cells contain a single stably integrated Flp recognition target (FRT) site, which allows for site-specific integration of the expression cassette by the Flp (Flippase) recombinase. DYRK1 constructs were designed to contain a C-terminal HiBiT tag for quantitative detection of HiBiT-tagged proteins in cellular lysates with the help a split luciferase assay (Nano-Glo HiBiT Lytic Detection System, Promega). To monitor the targeted degradation of DYRK1A or DYRK1B, cells were seeded in 96-well plates (10,000 cells/per well) and treated with doxycyclineinal concentration 2 μg/ml) to induce DYRK1 expression. Compounds with presumed PROTAC activity were administered 24 h after seeding. After further incubation for 24 h, cells were grossly and microscopically inspected for overt toxicity. Cells were lysed in 100 μL ice-cold passive lysis buffer (PLB, Promega) by orbital shaking (30 min on ice) before lysates were centrifuged in PCR tube (20 min 20,000 g, RT). A 10 μl aliquot of the supernatant was subjected to the HiBiT lytic assay. Luminescence was quantified in an Orion Microplate luminometer (Berthold Detection System, Germany). All compounds were tested in duplicate or triplicate wells (technical replicates) and at least two independent experiments. Relative degradation was calculated by normalization to vehicle-treated control samples.
For orientation: With HiBiT, luminescence reflects the tagged protein that the partner subunit can reach.

Assay [3] addresses T2, DYRK1A. As to the kind of experiment: KdELECT kinase binding assay (Eurofins), DYRK1A. The conditions noted are these: 11-point 3-fold dilution series, qPCR readout; read-out: Binding Affinity (Kd) DYRK1A. How it is done:
as §1

The target in assay [4] is T1, DYRK1B. As to the kind of experiment: HiBiT split luciferase assay of targeted degradation of DYRK1B in Flp-In T-REx 293 cells. It counts as cell-based. The conditions noted are these: 300 nM compound, 24 h, HiBiT-tagged DYRK1B in Flp-In T-REx 293 cells, normalized to vehicle; read-out: Relative Degradation at 300 nM DYRK1B.
Text: as §2

T1 sequence (Q9Y463 whole entry, species assumed): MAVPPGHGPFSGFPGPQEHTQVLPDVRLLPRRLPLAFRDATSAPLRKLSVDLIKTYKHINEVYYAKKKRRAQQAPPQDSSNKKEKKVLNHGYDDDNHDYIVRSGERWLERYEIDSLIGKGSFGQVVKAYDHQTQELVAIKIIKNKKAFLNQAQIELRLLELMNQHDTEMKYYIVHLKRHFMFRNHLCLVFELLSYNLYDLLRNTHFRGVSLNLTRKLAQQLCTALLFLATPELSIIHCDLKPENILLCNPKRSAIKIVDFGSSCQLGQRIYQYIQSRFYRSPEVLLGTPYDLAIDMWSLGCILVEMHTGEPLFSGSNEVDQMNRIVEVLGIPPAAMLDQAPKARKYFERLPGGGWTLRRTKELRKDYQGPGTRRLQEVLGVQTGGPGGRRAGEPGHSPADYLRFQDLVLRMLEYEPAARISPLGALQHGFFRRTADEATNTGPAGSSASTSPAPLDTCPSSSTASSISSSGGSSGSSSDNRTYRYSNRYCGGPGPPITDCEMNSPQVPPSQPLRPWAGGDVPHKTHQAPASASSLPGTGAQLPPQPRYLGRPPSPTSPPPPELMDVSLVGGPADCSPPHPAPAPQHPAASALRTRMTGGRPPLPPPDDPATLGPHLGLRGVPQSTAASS

Consider `Cc1nc2ccc(-c3ccnc(N)c3)nc2n1-c1ccc(N2CCN(CCOCCOCCOCCOCCNc3cc4c(cc3F)C(=O)N(C3CCC(=O)NC3=O)C4=O)CC2)c(F)c1` (centres unmarked) [Compound 13, 5-((14-(4-(4-(5-(2-aminopyridin-4-yl)-2-methyl-3H-imidazo[4,5-b]pyridin-3-yl)-2-fluorophenyl)piperazin-1-yl)-3,6,9,12-tetraoxatetradecyl)amino)-2-(2,6-dioxopiperidin-3-yl)-6-fluoroisoindoline-1,3-dione], for which the Kd in assay [1] and in assay [3] was 0.01 to 0.1 µM throughout. Further, the inhibition at 0.3 µM in assay [2] is below 30%.

As to `Cc1nc2ccc(-c3ccnc(N)c3)nc2n1-c1ccc(N2CCN(C(=O)CCN3CCN(Cc4ccc(CNc5cccc6c5CN(C5CCC(=O)NC5=O)C6=O)cc4)CC3)CC2)c(F)c1` (centres unmarked) [Compound 11, 3-(4-((4-((4-(3-(4-(4-(5-(2-aminopyridin-4-yl)-2-methyl-3H-imidazo[4,5-b]pyridin-3-yl)-2-fluorophenyl)piperazin-1-yl)-3-oxopropyl)piperazin-1-yl)methyl)benzyl)amino)-1-oxoisoindolin-2-yl)piperidine-2,6-dione], the Kd in assay [1] and in assay [3] was 0.01 to 0.1 µM in each case. The inhibition at 0.3 µM in assay [2] is below 30%.

For `Cc1nc2ccc(-c3ccnc(N)c3)nc2n1-c1ccc(N2CCN(C(=O)CCCN3CCC(n4cc(CNc5cccc6c5C(=O)N(C5CCC(=O)NC5=O)C6=O)cn4)CC3)CC2)c(F)c1` (centres unmarked) [Compound 16, 4-(((1-(1-(4-(4-(4-(5-(2-aminopyridin-4-yl)-2-methyl-3H-imidazo[4,5-b]pyridin-3-yl)-2-fluorophenyl)piperazin-1-yl)-4-oxobutyl)piperidin-4-yl)-1H-pyrazol-4-yl)methyl)amino)-2-(2,6-dioxopiperidin-3-yl)isoindoline-1,3-dione], the dissociation constant (Kd) in assay [1] and in assay [3] was below 0.01 µM in each case. Besides, the inhibition at 0.3 µM in assay [2] lay in the range of 30 to 60%.

For `Cc1nc2ccc(-c3ccnc(N)c3)nc2n1-c1ccc(N2CCN(c3ccc(N4CCC(C(=O)N5CCC(n6cc(CNc7cccc8c7C(=O)N(C7CCC(=O)NC7=O)C8=O)cn6)CC5)CC4)nc3)CC2)c(F)c1` (centres unmarked) [Compound 26, 4-(((1-(1-(1-(5-(4-(4-(5-(2-aminopyridin-4-yl)-2-methyl-3H-imidazo[4,5-b]pyridin-3-yl)-2-fluorophenyl)piperazin-1-yl)pyridin-2-yl)piperidine-4-carbonyl)piperidin-4-yl)-1H-pyrazol-4-yl)methyl)amino)-2-(2,6-dioxopiperidin-3-yl)isoindoline-1,3-dione], the values for the inhibition at 0.3 µM in assay [4] and in assay [2] were 30 to 50% and above 60%, respectively.

Consider `Cc1nc2ccc(-c3ccnc(N)c3)nc2n1-c1ccc(N2CCN(C(=O)CCCCN3CCN(Cc4ccc(CNc5cccc6c5CN(C5CCC(=O)NC5=O)C6=O)cc4)CC3)CC2)c(F)c1` (centres unmarked) [Compound 14, 3-(4-((4-((4-(5-(4-(4-(5-(2-aminopyridin-4-yl)-2-methyl-3H-imidazo[4,5-b]pyridin-3-yl)-2-fluorophenyl)piperazin-1-yl)-5-oxopentyl)piperazin-1-yl)methyl)benzyl)amino)-1-oxoisoindolin-2-yl)piperidine-2,6-dione], for which the Kd in assay [1] and in assay [3] was below 0.01 µM in each case. The inhibition at 0.3 µM in assay [2] was below 30%.

With `Cc1nc2ccc(-c3ccnc(N)c3)nc2n1-c1ccc(N2CCN(CC#Cc3ccc(N4CCC(C(=O)N5CCC(n6cc(CNc7cccc8c7C(=O)N(C7CCC(=O)N(C)C7=O)C8=O)cn6)CC5)CC4)nc3)CC2)c(F)c1` (centres unmarked) [Compound 31, 4-(((1-(1-(1-(5-(3-(4-(4-(5-(2-aminopyridin-4-yl)-2-methyl-3H-imidazo[4,5-b]pyridin-3-yl)-2-fluorophenyl)piperazin-1-yl)prop-1-yn-1-yl)pyridin-2-yl)piperidine-4-carbonyl)piperidin-4-yl)-1H-pyrazol-4-yl)methyl)amino)-2-(1-methyl-2,6-dioxopiperidin-3-yl)isoindoline-1,3-dione], the inhibition at 0.3 µM in assay [4] and in assay [2] was below 30% in each case.

On to `Cc1nc2ccc(-c3ccnc(N)c3)nc2n1-c1ccc(N2C[C@H]3CN(CC#Cc4ccc(N5CCC(C(=O)N6CCC(n7cc(CNc8cccc9c8C(=O)N(C8CCC(=O)NC8=O)C9=O)cn7)CC6)CC5)nc4)C[C@H]3C2)c(F)c1` (stereo partly drawn) [Compound 22, 4-(((1-(1-(1-(5-(3-((3aR,6aS)-5-(4-(5-(2-aminopyridin-4-yl)-2-methyl-3H-imidazo[4,5-b]pyridin-3-yl)-2-fluorophenyl)hexahydropyrrolo[3,4-c]pyrrol-2 (1H)-yl)prop-1-yn-1-yl)pyridin-2-yl)piperidine-4-carbonyl)piperidin-4-yl)-1H-pyrazol-4-yl)methyl)amino)-2-(2,6-dioxopiperidin-3-yl)isoindoline-1,3-dione], for which the inhibition at 0.3 µM was below 30% in assay [4] and 30 to 60% in assay [2].

With `Cc1nc2ccc(-c3ccnc(N)c3)nc2n1-c1ccc(N2CCN(CC#Cc3ccc(C4(C(=O)N5CCC(n6cc(CNc7cccc8c7C(=O)N(C7CCC(=O)NC7=O)C8=O)cn6)CC5)CCC4)cc3)CC2)c(F)c1` (centres unmarked) [Compound 28, 4-(((1-(1-(1-(4-(3-(4-(4-(5-(2-aminopyridin-4-yl)-2-methyl-3H-imidazo[4,5-b]pyridin-3-yl)-2-fluorophenyl)piperazin-1-yl)prop-1-yn-1-yl)phenyl)cyclobutane-1-carbonyl)piperidin-4-yl)-1H-pyrazol-4-yl)methyl)amino)-2-(2,6-dioxopiperidin-3-yl)isoindoline-1,3-dione], the results for the Kd in assay [1] and in assay [3] were 0.01 to 0.1 µM and below 0.01 µM, respectively. In assay [2], the inhibition at 0.3 µM is above 60%.

Consider `Cc1nc2ccc(-c3ccnc(N)c3)nc2n1-c1cc(Cl)c(N2CCN(CC#Cc3ccc(N4CCC(C(=O)N5CCC(n6cc(CNc7cccc8c7C(=O)N(C7CCC(=O)NC7=O)C8=O)cn6)CC5)CC4)nc3)CC2)c(Cl)c1` (centres unmarked) [Compound 27, 4-(((1-(1-(1-(5-(3-(4-(4-(5-(2-aminopyridin-4-yl)-2-methyl-3H-imidazo[4,5-b]pyridin-3-yl)-2,6-dichlorophenyl)piperazin-1-yl)prop-1-yn-1-yl)pyridin-2-yl)piperidine-4-carbonyl)piperidin-4-yl)-1H-pyrazol-4-yl)methyl)amino)-2-(2,6-dioxopiperidin-3-yl)isoindoline-1,3-dione], for which the values for the inhibition at 0.3 µM in assay [4] and in assay [2] were below 30% and above 60%, respectively.

As for `Cc1nc2ccc(-c3ccnc(N)c3)nc2n1-c1ccc(N2CCN(C(=O)CCCN3CCN(Cc4ccc(CNc5cccc6c5CN(C5CCC(=O)NC5=O)C6=O)cc4)CC3)CC2)c(F)c1` (centres unmarked) [Compound 12, 3-(4-((4-((4-(4-(4-(4-(5-(2-aminopyridin-4-yl)-2-methyl-3H-imidazo[4,5-b]pyridin-3-yl)-2-fluorophenyl)piperazin-1-yl)-4-oxobutyl)piperazin-1-yl)methyl)benzyl)amino)-1-oxoisoindolin-2-yl)piperidine-2,6-dione], the Kd in assay [1] and in assay [3] was below 0.01 µM throughout. The inhibition at 0.3 µM in assay [2] was in the range of 30 to 60%.
